Assay results: ChEMBL document CHEMBL5584309, “Discovery of Novel Mcl-1 Inhibitors with a 3-Substituted-1H-indole-1-yl Moiety Binding to the P1-P3 Pockets to Induce Apoptosis in Acute Myeloid Leukemia Cells” (J Med Chem, 2024)
pIC50, pKi: −log10 of the molar value. The source made the active and inactive calls. The calls are words filed in the database; no cut-off is given here.

Assays:
[1] = Toxicity in NOD SCID mouse xenografted with human THP-1 cells assessed as change in spleen tissue at 40 to 80 mg/kg, ip once daily after 10 days of tumor inoculation treated for 14 days relative to control; assay type: organism-based; details: in vivo, 336 h, dose 40-80 mg/kg, time 14 day
[2] = Cytotoxicity against rat H9c2 cells assessed as cell viability measured after 72 hrs by MTT assay; assay type: toxicity, cell-based
HL-60 [3] = assay: Induction of apoptosis in human HL-60 cells assessed as necrotic cells at 2.5 uM measured after 24 hrs by Annexin V-FITC/propidium iodide double staining based assay (reference value: 0.18%); assay type: functional
[4] = Metabolic stability in rat plasma assessed as compound remaining measured after 60 mins by LC-MS/MS analysis; assay type: ADME, cell-free; details: read-out: Stability
[5] = Tmax in Sprague-Dawley rat at 20 mg/kg, ip measured upto 24 hrs by LC-MS/MS analysis; assay type: ADME, organism-based; details: in vivo
[6] = Metabolic stability in rat plasma assessed as compound remaining measured after 10 mins by LC-MS/MS analysis; assay type: ADME, cell-free; details: read-out: Stability
THP-1 [7] = assay: Induction of apoptosis in human THP-1 cells assessed as early apoptotic cells at 20 uM measured after 24 hrs by Annexin V-FITC/propidium iodide double staining based assay (reference value: 4.04%); assay type: functional
[8] = Cmax in Sprague-Dawley rat at 20 mg/kg, ip measured upto 24 hrs by LC-MS/MS analysis; assay type: ADME, organism-based; details: in vivo
[9] = AUC (0 to t) in Sprague-Dawley rat at 5 mg/kg, iv measured upto 24 hrs by LC-MS/MS analysis; assay type: ADME, organism-based; details: in vivo
[10] = Toxicity in NOD SCID mouse assessed as change in body weight at 25 mg/kg, ip administered for 7 consecutive days; assay type: organism-based; details: in vivo, 168 h, time 7 day
HL-60 [11] = assay: Induction of apoptosis in human HL-60 cells assessed as viable cells at 2.5 uM measured after 24 hrs by Annexin V-FITC/propidium iodide double staining based assay (reference value: 92.68%); assay type: functional; details: read-out: Activity
[12] = MRT (0 to infinity) in Sprague-Dawley rat at 5 mg/kg, iv measured upto 24 hrs by LC-MS/MS analysis; assay type: ADME, organism-based; details: in vivo
[13] = Toxicity in NOD SCID mouse xenografted with human HL-60 cells assessed as change in lung tissue at 80 mg/kg, ip once daily after 15 days of tumor inoculation treated for 12 days; assay type: organism-based; details: in vivo, 288 h, time 12 day
THP-1 [14] = assay: Induction of apoptosis in human THP-1 cells assessed as early apoptotic cells at 5 uM measured after 24 hrs by Annexin V-FITC/propidium iodide double staining based assay (reference value: 4.04%); assay type: functional
[15] = Toxicity in NOD SCID mouse xenografted with human THP-1 cells assessed as change in kidney tissue at 40 to 80 mg/kg, ip once daily after 10 days of tumor inoculation treated for 14 days relative to control; assay type: organism-based; details: in vivo, 336 h, dose 40-80 mg/kg, time 14 day
[16] = Toxicity in NOD SCID mouse assessed as change in spleen tissue at 25 mg/kg, ip administered for 7 consecutive days by Hematoxylin-eosin (HE) staining based assay; assay type: organism-based; details: in vivo, 168 h, time 7 day
HL-60 [17] = assay: Induction of apoptosis in human HL-60 cells assessed as increase in Noxa measured after 24 hrs by Western blot analysis; assay type: functional, cell-based; details: dose 10-20 µM
[18] = Toxicity in NOD SCID mouse xenografted with human HL-60 cells assessed as change in heart tissue at 80 mg/kg, ip once daily after 15 days of tumor inoculation treated for 12 days; assay type: organism-based; details: in vivo, 288 h, time 12 day
HL-60 [19] = assay: In vivo antitumor activity against human HL-60 cells xenografted in female NOD SCID mouse assessed as reduction in tumor volume at 80 mg/kg, ip once daily after 15 days of tumor inoculation treated for 12 days; assay type: functional, organism-based; details: time 12.0 day
[20] = MRT (0 to infinity) in Sprague-Dawley rat at 20 mg/kg, ip measured upto 24 hrs by LC-MS/MS analysis; assay type: ADME, organism-based; details: in vivo
Bcl-2-like protein 1 = Bcl-2-like protein 1 (Homo sapiens, UniProt Q07817); assay: Binding affinity to Bcl-xL (unknown origin) pre-incubated for 30 mins followed by addition FAM-peptide further incubated for 20 mins by fluorescence polarization-based binding assay
Sequence of Bcl-2-like protein 1 (Q07817 whole entry): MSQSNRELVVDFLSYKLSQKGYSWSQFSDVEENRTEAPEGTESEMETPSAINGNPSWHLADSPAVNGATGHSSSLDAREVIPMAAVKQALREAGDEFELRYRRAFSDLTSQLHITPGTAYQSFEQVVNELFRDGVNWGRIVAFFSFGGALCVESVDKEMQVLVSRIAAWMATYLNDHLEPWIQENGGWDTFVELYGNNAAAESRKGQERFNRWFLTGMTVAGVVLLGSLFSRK

THP-1 [21] = assay: Induction of apoptosis in Noxa knockdown human THP-1 cells assessed as PARP cleavage at 20 uM measured after 24 hrs by […]; assay type: functional, cell-based
[22] = Toxicity in NOD SCID mouse assessed as change in heart tissue at 25 mg/kg, ip administered for 7 consecutive days by Hematoxylin-eosin (HE) staining based assay; assay type: organism-based; details: in vivo, 168 h, time 7 day
[23] = Half life in Sprague-Dawley rat at 5 mg/kg, iv measured upto 24 hrs by LC-MS/MS analysis; assay type: ADME, organism-based; details: in vivo
[24] = biological target: Induced myeloid leukemia cell differentiation protein Mcl-1 (Homo sapiens, UniProt Q07820); assay: Binding affinity to Mcl-1 (unknown origin) pre-incubated for 30 mins followed by addition FAM-peptide further incubated for 20 mins by fluorescence polarization-based binding assay; details: read-out: Ki
Sequence of Induced myeloid leukemia cell differentiation protein Mcl-1 (Q07820 whole entry): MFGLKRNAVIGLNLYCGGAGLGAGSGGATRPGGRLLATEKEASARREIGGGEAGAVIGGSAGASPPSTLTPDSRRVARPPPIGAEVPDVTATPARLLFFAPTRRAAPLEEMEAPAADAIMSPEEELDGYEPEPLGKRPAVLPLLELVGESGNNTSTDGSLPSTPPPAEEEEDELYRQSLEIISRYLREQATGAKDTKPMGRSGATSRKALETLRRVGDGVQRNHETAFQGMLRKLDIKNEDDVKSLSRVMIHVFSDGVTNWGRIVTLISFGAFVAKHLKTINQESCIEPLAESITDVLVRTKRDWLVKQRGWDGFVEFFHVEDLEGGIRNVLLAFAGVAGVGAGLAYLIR

[25] = Half life in Sprague-Dawley rat at 20 mg/kg, ip measured upto 24 hrs by LC-MS/MS analysis; assay type: ADME, organism-based; details: in vivo
[26] = biological target: Voltage-gated inwardly rectifying potassium channel KCNH2 (Homo sapiens, UniProt Q12809); assay: Inhibition of hERG; assay type: toxicity
Sequence of Voltage-gated inwardly rectifying potassium channel KCNH2 (Q12809 whole entry): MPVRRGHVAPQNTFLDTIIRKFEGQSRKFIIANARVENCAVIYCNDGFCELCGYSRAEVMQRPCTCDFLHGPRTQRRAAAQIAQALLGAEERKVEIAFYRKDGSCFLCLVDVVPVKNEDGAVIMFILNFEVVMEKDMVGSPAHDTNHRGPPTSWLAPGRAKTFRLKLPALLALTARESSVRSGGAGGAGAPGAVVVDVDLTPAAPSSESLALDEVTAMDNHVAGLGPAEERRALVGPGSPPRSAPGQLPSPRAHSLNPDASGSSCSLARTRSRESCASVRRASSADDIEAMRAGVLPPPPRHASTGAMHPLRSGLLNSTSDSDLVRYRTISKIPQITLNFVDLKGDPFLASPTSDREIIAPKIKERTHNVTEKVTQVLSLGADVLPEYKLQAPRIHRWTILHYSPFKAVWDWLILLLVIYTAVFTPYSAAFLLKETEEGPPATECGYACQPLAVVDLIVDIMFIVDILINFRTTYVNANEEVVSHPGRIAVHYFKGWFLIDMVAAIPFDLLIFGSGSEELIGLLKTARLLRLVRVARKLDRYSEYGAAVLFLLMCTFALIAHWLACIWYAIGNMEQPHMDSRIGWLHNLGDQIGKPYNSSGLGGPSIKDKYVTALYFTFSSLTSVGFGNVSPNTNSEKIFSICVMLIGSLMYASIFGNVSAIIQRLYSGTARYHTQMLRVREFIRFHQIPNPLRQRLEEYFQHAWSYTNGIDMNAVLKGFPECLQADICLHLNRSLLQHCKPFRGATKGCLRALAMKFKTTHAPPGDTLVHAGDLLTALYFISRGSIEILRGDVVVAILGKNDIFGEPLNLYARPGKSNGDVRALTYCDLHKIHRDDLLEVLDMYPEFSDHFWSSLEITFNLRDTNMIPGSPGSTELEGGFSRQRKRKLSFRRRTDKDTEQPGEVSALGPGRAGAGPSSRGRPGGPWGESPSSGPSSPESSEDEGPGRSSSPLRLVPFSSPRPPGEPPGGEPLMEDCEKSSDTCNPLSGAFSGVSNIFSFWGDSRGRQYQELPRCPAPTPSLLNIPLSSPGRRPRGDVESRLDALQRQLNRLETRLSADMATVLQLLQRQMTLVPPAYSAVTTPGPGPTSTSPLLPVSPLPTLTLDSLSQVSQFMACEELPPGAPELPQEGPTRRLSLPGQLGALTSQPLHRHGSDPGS

THP-1 [27] = assay: In vivo antitumor activity against human THP-1 cells xenografted in female NOD SCID mouse assessed as tumor growth inhibition at 80 mg/kg, ip once daily after 10 days of tumor inoculation treated for 14 days relative to control; assay type: functional; details: THP-1, 336 h, time 14 day, read-out: TGI
[28] = Cmax in Sprague-Dawley rat at 5 mg/kg, iv measured upto 24 hrs by LC-MS/MS analysis; assay type: ADME, organism-based; details: in vivo
[29] = Metabolic stability in rat liver microsomes assessed as half life by LC-MS/MS analysis; assay type: ADME, Microsome
MOLM-13 = assay: Antiproliferative activity against human MOLM-13 cells assessed as growth inhibition measured after 72 hrs by CCK-8 assay; assay type: functional, cell-based; details: MOLM-13, 72 h
[30] = Toxicity in NOD SCID mouse xenografted with human THP-1 cells assessed as change in body weight at 40 to 80 mg/kg, ip once daily after 10 days of tumor inoculation treated for 14 days relative to control; assay type: organism-based; details: in vivo, 336 h, dose 40-80 mg/kg, time 14 day
[31] = MRT (0 to t) in Sprague-Dawley rat at 5 mg/kg, iv measured upto 24 hrs by LC-MS/MS analysis; assay type: ADME, organism-based; details: in vivo
[32] = Toxicity in NOD SCID mouse assessed as change in kidney tissue at 25 mg/kg, ip administered for 7 consecutive days by Hematoxylin-eosin (HE) staining based assay; assay type: organism-based; details: in vivo, 168 h, time 7 day
[33] = biological target: Apoptosis regulator Bcl-2 (Homo sapiens, UniProt P10415); assay: Binding affinity to Bcl-2 in human THP-1 cells assessed as dissociation of Bim from Bcl-2 at 20 uM measured after 24 hrs by Co-immunoprecipitation (Co-IP) assay; assay type: cell-based
Sequence of Apoptosis regulator Bcl-2 (P10415 whole entry): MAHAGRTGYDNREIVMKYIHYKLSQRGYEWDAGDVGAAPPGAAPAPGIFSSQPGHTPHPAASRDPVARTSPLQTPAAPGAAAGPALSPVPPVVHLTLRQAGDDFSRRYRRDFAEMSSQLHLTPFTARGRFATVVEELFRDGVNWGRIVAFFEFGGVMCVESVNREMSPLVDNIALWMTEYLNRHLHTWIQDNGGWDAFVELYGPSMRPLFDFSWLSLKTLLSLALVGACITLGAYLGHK

THP-1 [34] = assay: Induction of apoptosis in human THP-1 cells assessed as necrotic cells at 10 uM measured after 24 hrs by Annexin V-FITC/propidium iodide double staining based assay (reference value: 0.13%); assay type: functional
HL-60 [35] = assay: Induction of apoptosis in human HL-60 cells assessed as cleaved PARP at 10 to 20 uM measured after 24 hrs by Western blot analysis; assay type: functional, cell-based; details: dose 10-20 µM

With Cc1cc(OCCCc2c(C(=O)O)n(CCN3CCOCC3)c3c(-c4ccccc4Cn4cc(CCN(CCN5CCOCC5)S(=O)(=O)c5ccc(F)cc5)c5ccccc54)cccc23)cc(C)c1Cl the Activity [1] was “Non-Toxic”, the IC50 at 72 h [2] was 17.9 µM and the Activity (HL-60 [3]) was 0.16%. For the same compound, the remaining at 1 h [4] was 94.8%, the Tmax [5] was 5.33 h and the remaining at 10 min [6] was 101%. For the same compound, the Activity (THP-1 [7]) was 24.61%, the Cmax [8] was 6240 ng/mL and the AUC(0-t) at 24 h [9] was 18700 ng·h/mL. The Activity [10] was “Non-Toxic”, the viability at 2.5 µM (HL-60 [11]) was 92.8% and the MRT inf [12] was 1.3 h. For the same compound, the Activity [13] was “Non-Toxic”, the Activity (THP-1 [14]) was 4.1% and the Activity [15] was “Non-Toxic”. For the same compound, the Activity [16] was “Non-Toxic”, the Activity (HL-60 [17]) was “Dose-Dependent Effect” and the Activity [18] was “Non-Toxic”. The Activity (HL-60 [19]) was “Active”, the MRT inf [20] was 7.03 h and the pIC50 (Bcl-2-like protein 1) was under 4.00. For the same compound, the Activity (THP-1 [21]) was “inactive”, the Activity [22] was “Non-Toxic” and the half-life [23] was 4.9 h. For the same compound, the pKi [24] was 7.62, the half-life [25] was 4.1 h and the pIC50 [26] was under 4.30. For the same compound, the inhibition in vivo at 80 mg/kg (THP-1 [27]) was 57.4%, the Cmax [28] was 46500 ng/mL and the t1/2 ([29]; microsomes) was 0.755 h. For the same compound, the pIC50 (MOLM-13) was 5.07, the Activity [30] was “Non-Toxic” and the MRT last at 24 h [31] was 1.14 h. For the same compound, the Activity [32] was “Non-Toxic”, the Activity [33] was “inactive” and the Activity (THP-1 [34]) was 0.14%. The Activity (HL-60 [35]) was “Active”.
Cc1nn(C)c(COc2ccc(N3CCN(S(=O)(=O)N(C)C)CC3)cc2)c1-c1cccc2c(CCCOc3cccc4ccccc34)c(C(=O)O)n(CCN3CCOCC3)c12 showed an Activity (HL-60 [3]) of 0.71%, a remaining at 1 h [4] of 106% and a remaining at 10 min [6] of 93.3%. It also gave an Activity (THP-1 [7]) of 33.09%, a viability at 2.5 µM (HL-60 [11]) of 96.2% and an Activity (THP-1 [14]) of 3.36%. It also gave a pIC50 (Bcl-2-like protein 1) of under 4.00, a pKi [24] of 7.92 and an inhibition in vivo at 80 mg/kg (THP-1 [27]) of 58.7%. It also gave a half-life ([29]; liver microsomes) of 0.662 h, a pIC50 (MOLM-13) of 5.09 and an Activity (THP-1 [34]) of 0.09%. The Activity (HL-60 [35]) was “Active”.
